The source of these data is patent publication US20250154109A1, “SODIUM CHANNEL BLOCKING COMPOUNDS, DERIVATIVES THEREOF, AND METHODS OF THEIR USE” (LATIGO BIOTHERAPEUTICS, INC, priority 2022, published 2025).

By IC50 is commonly meant the concentration at which inhibition is half-maximal.

The test concerns the target human Nav1.8 (Homo sapiens, UniProt Q9Y5Y9). The experiment in a line: SyncroPatch384PE assay (automated patch clamp). As to conditions: human Nav1.8/b3 CHO cells. The test is classed as cell-based. The procedure:
Compounds were tested on recombinant human Nav1.8/b3 stably transfected CHO cells using the SyncroPatch384PE system (Nanion Technologies), an automated patch clamp device. Cells were cultured at 37° C./5% CO2 in Ham's F-12 supplemented with 10% fetal bovine serum, 100 U/mL penicillin G sodium, […] streptomycin sulfate and selection antibiotics (0.01 mg/mL Blasticidin, 0.4 mg/mL Zeocin and 0.25 mg/mL Hygromycin). On the day of the recordings, cells in culture dishes were washed twice with Hank's Balanced Salt Solution (HBSS) and treated with Accutase for approximately 20 minutes. Immediately before use in the SynchroPatch384PE using an 8-hole NPC-384 chip, the cells were washed in HBSS to remove the Accutase and re-suspended in extracellular solution. All experiments were performed at ambient temperature. Intracellular solution contained (mM): CsCl, 50; CsF, 90; MgCl2, 5; EGTA, 1; HEPES, 10; pH adjusted to 7.2 with CsOH. Extracellular solution contained (mM): NaCl, 137; KCl, 4.0; CaCl2), 3.8; MgCl2, 1; HEPES, 10; Glucose, 10; pH adjusted to 7.4 with NaOH. 100 nM tetrodotoxin (TTX) was added to the extracellular solution to block endogenous TTX-sensitive sodium currents.
Compounds were tested in quadruplicate in 0.3% DMSO and 0.03% pluronic Acid. Compounds were diluted 1:3.33 in extracellular solution to create an 8-point concentration response curve. Each plate contained a historical positive control and up to ten compounds. 300 μM tetracaine and 0.3% DMSO+0.03% pluronic acid were used as high and low controls respectively.
Whole cell patch clamp recordings were conducted according to Nanion's standard procedure for SyncroPatch384PE®. Cells were held at a holding potential of −120 mV. A depolarization step to 10 mV for 30 ms was applied (P1 measurement), followed by a hyperpolarization step to −100 mV for 100 ms. An inactivation step at −35 mV for 10 sec was applied before stepping to −100 mV for 20 ms, followed by a step to 10 mV for 30 ms (P2 measurement) and then back to −100 mV for 30 ms. Sweep interval was 15 sec. Following establishment of the whole-cell configuration in extracellular solution, cells were washed in extracellular solution containing 0.3% DMSO and 0.03% pluronic acid to stabilize the baseline current. Compounds were then applied by the SynchroPatch384 PE system into each well and the current was recorded for five minutes in extracellular solution, followed by application of tetracaine to achieve full block at the end of experiment. The potency of the compounds was assessed on two read-outs, resting state block (P1 measurement) or inactivated state block (P2 measurement) to obtain IC50 values. Values were normalized to high (tetracaine) and low (DMSO+pluronic acid) controls.
Examples 1 to 219 and Examples 225 to 236 are assayed using SyncroPatch384PE assay described above.
On the technique in general: The patch-clamp technique gives a direct electrical read-out from membranes.

Setting [1] is: inactivated state block (P2 measurement), read-out: P2 IC50.
The mark [2] stands for this setting: resting state block (P1 measurement), read-out: P1 IC50.

Structures can show the parent of a compound that is named as a salt. Where two headings read alike, the source gives them in different places.

Chain of human Nav1.8 (Q9Y5Y9 whole entry): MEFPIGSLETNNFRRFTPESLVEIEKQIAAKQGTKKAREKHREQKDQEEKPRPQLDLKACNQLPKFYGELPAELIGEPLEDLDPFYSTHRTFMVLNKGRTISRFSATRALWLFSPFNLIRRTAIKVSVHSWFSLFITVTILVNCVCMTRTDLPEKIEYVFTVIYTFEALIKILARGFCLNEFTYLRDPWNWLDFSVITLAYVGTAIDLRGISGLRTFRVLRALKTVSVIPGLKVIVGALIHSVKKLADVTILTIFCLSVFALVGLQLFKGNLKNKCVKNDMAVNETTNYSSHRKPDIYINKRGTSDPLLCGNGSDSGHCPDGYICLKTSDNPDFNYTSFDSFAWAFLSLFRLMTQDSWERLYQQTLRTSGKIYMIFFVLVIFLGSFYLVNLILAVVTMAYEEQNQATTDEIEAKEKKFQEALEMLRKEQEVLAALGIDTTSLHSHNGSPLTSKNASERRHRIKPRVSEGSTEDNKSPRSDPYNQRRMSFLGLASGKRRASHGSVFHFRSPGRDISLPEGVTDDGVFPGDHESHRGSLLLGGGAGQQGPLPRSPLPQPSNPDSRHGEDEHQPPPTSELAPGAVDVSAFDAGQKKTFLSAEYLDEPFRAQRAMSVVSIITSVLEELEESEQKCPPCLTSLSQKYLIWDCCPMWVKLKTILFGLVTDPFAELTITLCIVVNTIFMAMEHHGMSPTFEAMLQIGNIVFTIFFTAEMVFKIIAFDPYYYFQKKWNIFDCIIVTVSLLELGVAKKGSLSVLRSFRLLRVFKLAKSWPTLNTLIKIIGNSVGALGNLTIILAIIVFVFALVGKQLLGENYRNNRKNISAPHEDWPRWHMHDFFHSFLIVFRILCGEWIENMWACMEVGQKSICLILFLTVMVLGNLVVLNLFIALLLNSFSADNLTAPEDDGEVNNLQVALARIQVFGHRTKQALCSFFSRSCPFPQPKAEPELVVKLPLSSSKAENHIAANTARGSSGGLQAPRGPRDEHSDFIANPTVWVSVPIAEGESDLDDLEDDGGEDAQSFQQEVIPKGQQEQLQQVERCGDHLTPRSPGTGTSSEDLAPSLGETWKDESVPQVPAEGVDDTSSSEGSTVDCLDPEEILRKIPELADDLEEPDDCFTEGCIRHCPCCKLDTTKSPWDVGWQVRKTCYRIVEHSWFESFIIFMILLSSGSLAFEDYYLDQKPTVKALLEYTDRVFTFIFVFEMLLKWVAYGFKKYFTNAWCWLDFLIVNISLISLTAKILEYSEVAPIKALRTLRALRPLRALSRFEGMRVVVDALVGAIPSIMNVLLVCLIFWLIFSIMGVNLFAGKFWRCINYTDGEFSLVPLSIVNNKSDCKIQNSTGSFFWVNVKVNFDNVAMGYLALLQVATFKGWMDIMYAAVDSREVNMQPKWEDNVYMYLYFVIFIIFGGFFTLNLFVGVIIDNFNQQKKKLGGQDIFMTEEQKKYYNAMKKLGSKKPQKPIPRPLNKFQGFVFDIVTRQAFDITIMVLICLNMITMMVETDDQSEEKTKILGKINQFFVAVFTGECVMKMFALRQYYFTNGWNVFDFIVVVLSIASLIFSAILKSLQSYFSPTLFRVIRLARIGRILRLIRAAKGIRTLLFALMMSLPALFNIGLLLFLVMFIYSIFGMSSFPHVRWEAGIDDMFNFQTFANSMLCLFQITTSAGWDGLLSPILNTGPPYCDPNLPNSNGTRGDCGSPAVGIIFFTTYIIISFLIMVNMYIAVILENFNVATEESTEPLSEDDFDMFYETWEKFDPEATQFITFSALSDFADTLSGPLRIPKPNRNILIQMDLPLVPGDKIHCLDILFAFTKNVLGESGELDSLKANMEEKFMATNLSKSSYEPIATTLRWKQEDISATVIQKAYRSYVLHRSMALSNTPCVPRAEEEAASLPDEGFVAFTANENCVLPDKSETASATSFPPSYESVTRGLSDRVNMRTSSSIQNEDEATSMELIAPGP

In the case of `Cc1c(C(=O)Nc2cccc([S@](C)(=N)=O)c2)c(N2CCCC(F)(F)CC2)nc(C(F)(F)F)c1-c1cnn(C)c1` [Example 133, (R)-2-(4,4-difluoroazepan-1-yl)-4-methyl-5-(1-methyl-1H-pyrazol-4-yl)-N-(3-(S-methylsulfonimidoyl)phenyl)-6-(trifluoromethyl)nicotinamide], the IC50 is ≤ 5 nM under setting [1] and ≤ 5 nM under setting [2].
In the case of `Cc1c(-c2ccc(C(F)F)cc2)cnc(N2CCCC(F)(F)CC2)c1C(=O)Nc1cccc(S(C)(=N)=O)c1` (stereo not drawn) [Example 87, 2-(4,4-difluoroazepan-1-yl)-5-(4-(difluoromethyl)phenyl)-4-methyl-N-(3-(S-methylsulfonimidoyl)phenyl)nicotinamide], the IC50 under setting [1] was ≤ 5 nM and the IC50 under setting [2] was ≤ 5 nM.
On to `Cc1c(-c2cnn(C(F)(F)F)c2)cnc(N2CCCC(F)(F)CC2)c1C(=O)Nc1cccc([S@](C)(=N)=O)c1` [Example 176, (R)-2-(4,4-difluoroazepan-1-yl)-4-methyl-N-(3-(S-methylsulfonimidoyl)phenyl)-5-(1-(trifluoromethyl)-1H-pyrazol-4-yl)nicotinamide], for which the IC50 reads like this: under setting [1], ≤ 5 nM; under setting [2], ≤ 5 nM.
For `CNCC(=O)N=[S@](C)(=O)c1cccc(NC(=O)c2c(N3CCCC(F)(F)CC3)ncc(-c3ccc(Cl)cc3)c2C)c1` [Example 68, (R)-5-(4-chlorophenyl)-2-(4,4-difluoroazepan-1-yl)-4-methyl-N-(3-(S-methyl-N-(methylglycyl)sulfonimidoyl)phenyl)nicotinamide], the IC50 reads like this: under setting [1], ≤ 5 nM; under setting [2], ≤ 5 nM.
As for `Cc1c(C#N)c(C(F)(F)F)nc(N2CCCC(F)(F)CC2)c1C(=O)Nc1cccc([S@@](C)(=O)=NC(=O)C(C)(C)N)c1` [Example 227, (R)-N-(3-(N-(2-amino-2-methylpropanoyl)-S-methylsulfonimidoyl)phenyl)-5-cyano-2-(4,4-difluoroazepan-1-yl)-4-methyl-6-(trifluoromethyl)nicotinamide formate], the IC50 is, setting by setting: under setting [1], ≤ 5 nM; under setting [2], ≤ 5 nM.
For the compound `Cc1c(F)cnc(N2CCCC(F)(F)CC2)c1C(=O)Nc1cccc([S@](C)(=N)=O)c1` [Example 168, (R)-2-(4,4-difluoroazepan-1-yl)-5-fluoro-4-methyl-N-(3-(S-methylsulfonimidoyl)phenyl)nicotinamide], the IC50 under setting [1] was in the range of 5 to 50 nM and the IC50 under setting [2] lay in the range of 5 to 50 nM.
For `CS(=N)(=O)c1cccc(NC(=O)c2cc(C(F)(F)F)nnc2N2CCCC(F)(F)CC2)c1` (stereo not drawn) [Example 6, 3-(4,4-difluoroazepan-1-yl)-N-(3-(S-methylsulfonimidoyl)phenyl)-6-(trifluoromethyl)pyridazine-4-carboxamide], the IC50 lay in the range of 5 to 50 nM under setting [1] and 5 to 50 nM under setting [2].
Take `C[S@@](=N)(=O)c1cc(NC(=O)c2cc(Cl)c(C(F)(F)F)cc2N2CCCC(F)(F)CC2)ccn1` [Example 199, (R)-5-chloro-2-(4,4-difluoroazepan-1-yl)-N-(2-(S-methylsulfonimidoyl)pyridin-4-yl)-4-(trifluoromethyl)benzamide]: the IC50 is ≤ 5 nM under setting [1] and ≤ 5 nM under setting [2].
With `Cc1cc(C#N)nc(N2CCCC(F)(F)CC2)c1C(=O)Nc1ccnc([S@](C)(=N)=O)c1` [Example 204, (R)-6-cyano-2-(4,4-difluoroazepan-1-yl)-4-methyl-N-(2-(S-methylsulfonimidoyl)pyridin-4-yl)nicotinamide], the IC50 under setting [1] lay in the range of 5 to 50 nM and the IC50 under setting [2] lay in the range of 5 to 50 nM.
As to `Cc1ccc(-c2nnc(N3CCCC(F)(F)CC3)c(C(=O)Nc3cccc([S@](C)(=N)=O)c3)c2C)cc1` [Example 225, (R)-3-(4,4-difluoroazepan-1-yl)-5-methyl-N-(3-(S-methylsulfonimidoyl)phenyl)-6-(p-tolyl)pyridazine-4-carboxamide], the IC50 is, setting by setting: under setting [1], 5 to 50 nM; under setting [2], 5 to 50 nM.
In the case of `CNCC(=O)N=[S@](C)(=O)c1cccc(NC(=O)c2cc(Cl)c(C(F)(F)F)cc2N2CCCC(F)(F)CC2)c1` [Example 228, (R)-5-chloro-2-(4,4-difluoroazepan-1-yl)-N-(3-(S-methyl-N-(methylglycyl)sulfonimidoyl)phenyl)-4-(trifluoromethyl)benzamide], the IC50 is, setting by setting: under setting [1], ≤ 5 nM; under setting [2], ≤ 5 nM.
Turning to `Cc1c(-c2cnn(C)c2)cnc(N2CCCC(F)(F)CC2)c1C(=O)Nc1cccc([S@@](C)(=O)=NC(=O)C2CNC2)c1` [Example 51, (R)-N-(3-(N-(azetidine-3-carbonyl)-S-methylsulfonimidoyl)phenyl)-2-(4,4-difluoroazepan-1-yl)-4-methyl-5-(1-methyl-1H-pyrazol-4-yl)nicotinamide formate], the IC50 fell in the range of 5 to 50 nM under setting [1] and 5 to 50 nM under setting [2].
Take `O=C(Nc1ccnnc1)c1nnc(C(F)(F)F)cc1N1CCCC(F)(F)CC1` [Example 32, 4-(4,4-Difluoroazepan-1-yl)-N-(pyridazin-4-yl)-6-(trifluoromethyl)pyridazine-3-carboxamide]: the IC50 runs as follows: under setting [1], > 200 nM; under setting [2], > 200 nM.
Consider `Cc1c(Cl)c(C(F)(F)F)nc(N2CCCC(F)(F)CC2)c1C(=O)Nc1cccc([S@@](C)(=N)=O)c1` [Example 108, (S)-5-chloro-2-(4,4-difluoroazepan-1-yl)-4-methyl-N-(3-(S-methylsulfonimidoyl)phenyl)-6-(trifluoromethyl)nicotinamide], for which the half-maximal inhibitory concentration (IC50) is ≤ 5 nM under setting [1] and ≤ 5 nM under setting [2].
Turning to `Cc1c(-c2cnn(C)c2)cnc(N2CCCC(F)(F)CC2)c1C(=O)Nc1cccc([S@@](C)(=O)=NC(=O)CO)c1` [Example 229, (R)-2-(4,4-difluoroazepan-1-yl)-N-(3-(N-(2-hydroxyacetyl)-S-methylsulfonimidoyl)phenyl)-4-methyl-5-(1-methyl-1H-pyrazol-4-yl)nicotinamide], the IC50 runs as follows: under setting [1], 5 to 50 nM; under setting [2], 5 to 50 nM.
For the compound `Cc1c(C#N)c(C(F)(F)F)nc(N2CCCC(F)(F)CC2)c1C(=O)Nc1cccc([S@@](C)(=O)=NC(=O)C2(N)CCC2)c1` [Example 73, (R)-N-(3-(N-(1-aminocyclobutane-1-carbonyl)-S-methylsulfonimidoyl)phenyl)-5-cyano-2-(4,4-difluoroazepan-1-yl)-4-methyl-6-(trifluoromethyl)nicotinamide], the IC50 under setting [1] lay within 5 to 50 nM and the IC50 under setting [2] lay within 50 to 100 nM.
In the same order, the values of `Cc1nc(N2CCNCC2)nc(N2CCCC(F)(F)CC2)c1C(=O)Nc1cccc([S@](C)(=N)=O)c1` [Example 161, (R)-4-(4,4-difluoroazepan-1-yl)-6-methyl-N-(3-(S-methylsulfonimidoyl)phenyl)-2-(piperazin-1-yl)pyrimidine-5-carboxamide] are > 200 nM and > 200 nM.
For `CNCC(=O)N=[S@](C)(=O)c1cccc(NC(=O)c2c(N3CCCC(F)(F)CC3)ncc(-c3ccc(F)c(F)c3)c2C)c1` [Example 60, (R)-2-(4,4-difluoroazepan-1-yl)-5-(3,4-difluorophenyl)-4-methyl-N-(3-(S-methyl-N-(methylglycyl)sulfonimidoyl)phenyl)nicotinamide], in that order: ≤ 5 nM and ≤ 5 nM.
In the same order, the values of `C[S@@+]([O-])c1cc(NC(=O)c2cc(Cl)c(C(F)(F)F)cc2N2CCCC(F)(F)CC2)ccc1F` [Example 206, (R)-5-chloro-2-(4,4-difluoroazepan-1-yl)-N-(4-fluoro-3-(methylsulfinyl)phenyl)-4-(trifluoromethyl)benzamide] are ≤ 5 nM and ≤ 5 nM.
As for `Cc1c(-c2ccccc2)nnc(N2CCCC(F)(F)CC2)c1C(=O)Nc1cccc([S@@](C)(=N)=O)c1` [Example 117, (S)-3-(4,4-difluoroazepan-1-yl)-5-methyl-N-(3-(S-methylsulfonimidoyl)phenyl)-6-phenylpyridazine-4-carboxamide], the IC50 lay in the range of 50 to 100 nM under setting [1] and 100 to 200 nM under setting [2].
For `Cc1c(Br)c(C(F)(F)F)nc(N2CCCC(F)(F)CC2)c1C(=O)Nc1cccc([S@](C)(=N)=O)c1` [Example 130, (R)-5-bromo-2-(4,4-difluoroazepan-1-yl)-4-methyl-N-(3-(S-methylsulfonimidoyl)phenyl)-6-(trifluoromethyl)nicotinamide], in that order: ≤ 5 nM and ≤ 5 nM.
